This note sets out measurements from patent US12581252B2, “Substituted pyrrolo[3,4-b]pyridines as PI3K-α inhibitors” (Relay Therapeutics, Inc., priority 2020, dated 2026).

Where only a bound is given, the exact number is not on record here.

Sequence of H1047R PIK3CA enzyme (P42336 whole entry H1047R): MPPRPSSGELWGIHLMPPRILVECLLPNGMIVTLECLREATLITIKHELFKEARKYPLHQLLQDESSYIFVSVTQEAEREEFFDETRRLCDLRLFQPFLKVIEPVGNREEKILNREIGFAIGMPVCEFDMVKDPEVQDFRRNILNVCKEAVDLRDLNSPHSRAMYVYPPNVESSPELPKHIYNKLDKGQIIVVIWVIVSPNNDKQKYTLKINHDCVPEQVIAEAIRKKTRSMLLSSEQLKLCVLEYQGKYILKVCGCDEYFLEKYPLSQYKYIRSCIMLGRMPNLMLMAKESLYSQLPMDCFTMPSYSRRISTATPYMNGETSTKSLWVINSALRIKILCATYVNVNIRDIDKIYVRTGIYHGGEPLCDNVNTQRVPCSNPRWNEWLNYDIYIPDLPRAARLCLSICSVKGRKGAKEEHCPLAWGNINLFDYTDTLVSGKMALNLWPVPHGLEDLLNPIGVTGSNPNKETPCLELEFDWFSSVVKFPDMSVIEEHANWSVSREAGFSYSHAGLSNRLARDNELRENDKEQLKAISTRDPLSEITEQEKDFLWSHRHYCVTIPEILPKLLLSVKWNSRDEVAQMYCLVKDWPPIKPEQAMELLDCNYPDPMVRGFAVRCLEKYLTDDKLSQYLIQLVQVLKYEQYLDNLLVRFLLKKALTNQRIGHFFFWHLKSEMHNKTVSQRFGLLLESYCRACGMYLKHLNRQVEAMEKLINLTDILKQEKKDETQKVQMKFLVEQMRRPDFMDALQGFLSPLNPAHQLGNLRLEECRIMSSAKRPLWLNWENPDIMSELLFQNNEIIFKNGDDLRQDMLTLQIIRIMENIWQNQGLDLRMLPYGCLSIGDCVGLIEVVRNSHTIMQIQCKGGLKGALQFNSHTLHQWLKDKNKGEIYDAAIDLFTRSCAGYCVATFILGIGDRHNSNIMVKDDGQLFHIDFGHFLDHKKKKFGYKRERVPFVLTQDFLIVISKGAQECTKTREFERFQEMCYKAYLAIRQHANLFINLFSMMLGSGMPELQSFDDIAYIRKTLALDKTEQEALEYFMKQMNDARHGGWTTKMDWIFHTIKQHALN
Sequence of H1047R PIK3CA enzyme (P27986 whole entry partner): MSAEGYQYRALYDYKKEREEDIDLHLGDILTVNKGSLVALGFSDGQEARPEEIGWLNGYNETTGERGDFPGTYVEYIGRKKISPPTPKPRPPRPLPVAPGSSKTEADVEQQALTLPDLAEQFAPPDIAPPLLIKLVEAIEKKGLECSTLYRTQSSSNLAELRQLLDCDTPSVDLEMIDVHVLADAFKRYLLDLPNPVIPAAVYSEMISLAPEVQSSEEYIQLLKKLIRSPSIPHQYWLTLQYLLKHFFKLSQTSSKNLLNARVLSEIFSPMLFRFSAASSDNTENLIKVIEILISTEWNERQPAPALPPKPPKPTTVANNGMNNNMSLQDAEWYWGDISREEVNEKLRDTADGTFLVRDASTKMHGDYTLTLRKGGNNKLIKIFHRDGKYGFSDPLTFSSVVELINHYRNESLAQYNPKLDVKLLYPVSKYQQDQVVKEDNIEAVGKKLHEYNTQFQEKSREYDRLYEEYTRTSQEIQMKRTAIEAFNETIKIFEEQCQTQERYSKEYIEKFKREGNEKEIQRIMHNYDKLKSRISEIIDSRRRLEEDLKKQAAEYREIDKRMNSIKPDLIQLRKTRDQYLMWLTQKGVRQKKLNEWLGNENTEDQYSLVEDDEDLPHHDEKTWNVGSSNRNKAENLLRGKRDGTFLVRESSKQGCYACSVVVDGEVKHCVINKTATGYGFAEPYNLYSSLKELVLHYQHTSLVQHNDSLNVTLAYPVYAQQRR

This assay concerns the target H1047R PIK3CA enzyme (Homo sapiens, UniProt P42336, H1047R). Put plainly: ADP-Glo Biochemical PIK3CA Kinase Assay.
The term IC50 denotes the concentration at which inhibition is half-maximal. A high value points to a need for much substance. In the case of `N#C[C@H]1C[C@H](Oc2cc(NC(=O)c3cc(F)cc(C(F)(F)F)c3)c3c(c2)C(=O)N[C@@H]3c2cc(F)ccc2Cl)C1` (stereo in doubt) [Compound I-1304], the IC50 was 1 to 10 µM.

Molecule `N#C[C@H]1C[C@H](Oc2cc(NC(=O)c3cc(F)cc(C(F)(F)F)c3)c3c(c2)C(=O)N[C@H]3c2cc(F)ccc2Cl)C1` (stereo in doubt) [Compound I-1305] came in with an IC50 of at most 0.1 µM.

Consider `O=C1N[C@@H](c2cc(F)ccc2Cl)c2c(NC(=O)N3CC4(CC4)c4cc(F)ccc43)cc(Br)cc21` (stereo in doubt) [Compound I-1509], for which the IC50 is at most 0.1 µM.

The molecule `O=C1N[C@H](c2cc(F)ccc2Cl)c2c(NC(=O)N3CC4(CC4)c4cc(F)ccc43)cc(Br)cc21` (stereo in doubt) [Compound I-1510] yielded an IC50 of 1 to 10 µM.

The molecule `O=C(Nc1cc(-c2ccn3ncnc3c2)cc2c1[C@@H](c1cc(F)ccc1Cl)NC2=O)c1cc(F)cc(C(F)(F)F)c1` (stereo in doubt) [Compound I-1596] returned an IC50 of 1 to 10 µM.

In turn, `O=C(Nc1cc(-c2ccn3ncnc3c2)cc2c1[C@H](c1cc(F)ccc1Cl)NC2=O)c1cc(F)cc(C(F)(F)F)c1` (stereo in doubt) [Compound I-1597] returned a half-maximal inhibitory concentration (IC50) of at most 0.1 µM.

The molecule `O=C(Nc1cc(Cc2ccc3c(c2)CNC3=O)cc2c1[C@H](c1cc(F)ccc1Cl)NC2=O)c1cc(F)cc(C(F)(F)F)c1` (stereo in doubt) [Compound I-1612] returned an IC50 of at most 0.1 µM.

In the case of `O=C(Nc1cc(Cc2ccc3c(c2)CNC3=O)cc2c1[C@@H](c1cc(F)ccc1Cl)NC2=O)c1cc(F)cc(C(F)(F)F)c1` (stereo in doubt) [Compound I-1613], the IC50 is 0.1 to 0.5 µM.

The molecule `O=C(Nc1cc(Cn2cccn2)cc2c1[C@@H](c1cc(F)ccc1Cl)NC2=O)c1cc(F)cc(C(F)(F)F)c1` (stereo in doubt) [Compound I-1614] yielded a concentration for half-maximal inhibition (IC50) of 0.1 to 0.5 µM.

As for `O=C(Nc1cc(Cn2cccn2)cc2c1[C@H](c1cc(F)ccc1Cl)NC2=O)c1cc(F)cc(C(F)(F)F)c1` (stereo in doubt) [Compound I-1615], the IC50 was at most 0.1 µM.

As to `O=C(Nc1cc(-c2cn3ncnc3cc2F)cc2c1[C@@H](c1cc(F)ccc1Cl)NC2=O)c1cc(F)cc(C(F)(F)F)c1` (stereo in doubt) [Compound I-1701], the IC50 lay in the range of 1 to 10 µM.

In turn, `O=C(Nc1cc(-c2cn3ncnc3cc2F)cc2c1[C@H](c1cc(F)ccc1Cl)NC2=O)c1cc(F)cc(C(F)(F)F)c1` (stereo in doubt) [Compound I-1702] came in with an IC50 of at most 0.1 µM.

Regarding `O=C1N[C@H](c2cc(F)ccc2Cl)c2c(NC(=O)N3CCc4ccccc43)cc(-c3ccc4ncnn4c3)cc21` (stereo in doubt) [Compound I-1716], the IC50 fell in the range of 1 to 10 µM.

Take `N#Cc1cncn1Cc1cc(NC(=O)c2cc(F)cc(C(F)(F)F)c2)c2c(c1)C(=O)N[C@H]2c1cc(F)ccc1Cl` (stereo in doubt) [Compound I-1748]: the IC50 was at most 0.1 µM.

For the molecule `N#Cc1cncn1Cc1cc(NC(=O)c2cc(F)cc(C(F)(F)F)c2)c2c(c1)C(=O)N[C@@H]2c1cc(F)ccc1Cl` (stereo in doubt) [Compound I-1749], the IC50 was in the range of 0.1 to 0.5 µM.

On to `[2H]c1nc2ccc(-c3cc(NC(=O)c4cc(F)cc(C(F)(F)F)c4)c4c(c3)C(=O)N[C@H]4c3cc(F)ccc3Cl)cn2n1` (stereo in doubt) [Compound I-1785], for which the IC50 was at most 0.1 µM.

`[2H]c1nc2ccc(-c3cc(NC(=O)c4cc(F)cc(C(F)(F)F)c4)c4c(c3)C(=O)N[C@@H]4c3cc(F)ccc3Cl)cn2n1` (stereo in doubt) [Compound I-1786]: the IC50 was in the range of 0.1 to 0.5 µM.

For the molecule `O=C1N[C@@H](c2cc(F)ccc2Cl)c2c(NC(=O)c3nsc4ccccc34)cc(-c3ccc4ncnn4c3)cc21` (stereo in doubt) [Compound I-1829], the IC50 is at most 0.1 µM.

`O=C1N[C@H](c2cc(F)ccc2Cl)c2c(NC(=O)c3nsc4ccccc34)cc(-c3ccc4ncnn4c3)cc21` (stereo in doubt) [Compound I-1830] displayed an IC50 of 1 to 10 µM.

As to `O=C(Nc1ccccc1)Nc1cc(Br)cc2c1[C@H](c1cc(F)ccc1Cl)NC2=O` (stereo in doubt) [Compound I-1945], the IC50 lay within 10 to 100 µM.

For `O=C(Nc1ccccc1)Nc1cc(Br)cc2c1[C@@H](c1cc(F)ccc1Cl)NC2=O` (stereo in doubt) [Compound I-1946], the IC50 was in the range of 1 to 10 µM.

On to `N#CCCc1cc(NC(=O)c2cc(F)cc(C(F)(F)F)c2)c2c(c1)C(=O)N[C@@H]2c1cc(F)ccc1Cl` (stereo in doubt) [Compound I-2170], for which the IC50 was in the range of 10 to 100 µM.

`O=C1N[C@@H](c2cc(F)ccc2Cl)c2c(NC(=O)N3C[C@H](O)c4ccc(F)cc43)cccc21` (stereo in doubt) [Compound I-2172] yielded an IC50 of 0.5 to 1 µM.

Molecule `O=C1N[C@H](c2cc(F)ccc2Cl)c2c(NC(=O)N3C[C@@H](O)c4ccc(F)cc43)cccc21` (stereo in doubt) [Compound I-2173] showed an IC50 of 1 to 10 µM.

In turn, `O=C1N[C@H](c2cc(F)ccc2Cl)c2c(NC(=O)N3C[C@H](O)c4ccc(F)cc43)cccc21` (stereo in doubt) [Compound I-2174] had an IC50 of 10 to 100 µM.

For `Cc1ccccc1C1NC(=O)c2cccc(NC(=O)c3cc(F)cc(C(F)(F)F)c3)c21` (centres unmarked) [Compound I-2], the IC50 lay in the range of 0.1 to 0.5 µM.

With `O=C1NCc2c(NC(=O)c3csc4ccccc34)cccc21` [Compound I-3], the IC50 lay in the range of 10 to 100 µM.

Take `Cc1ccccc1[C@H]1NC(=O)c2cccc(NC(=O)c3csc4ccccc34)c21` [Compound I-4]: the IC50 lay within 0.5 to 1 µM.

In turn, `Cc1ccccc1C1NC(=O)c2nccc(NC(=O)c3csc4ccccc34)c21` (centres unmarked) [Compound I-7] displayed an IC50 of 0.1 to 0.5 µM.

On to `O=C1NC(c2ccccc2)c2c(NC(=O)c3csc4ccccc34)cccc21` (centres unmarked) [Compound I-8], for which the IC50 lay in the range of 0.1 to 0.5 µM.

Turning to `O=C1NC(c2ccccc2Cl)c2c(NC(=O)c3csc4ccccc34)ccnc21` (centres unmarked) [Compound I-9], the IC50 was in the range of 0.1 to 0.5 µM.

The molecule `Cc1ccccc1C1NC(=O)Oc2cccc(Br)c21` (centres unmarked) [Compound I-10] returned an IC50 of 10 to 100 µM.

For `Cc1ccccc1C1NC(=O)c2cccc(NC(=O)c3cccc4c3CCCO4)c21` (centres unmarked) [Compound I-11], the IC50 lay in the range of 10 to 100 µM.

In the case of `Cc1ccccc1C1NC(=O)c2cccc(NC(=O)c3cccc(C(F)(F)F)c3F)c21` (centres unmarked) [Compound I-12], the IC50 lay in the range of 10 to 100 µM.

In turn, `COc1cccc(-c2cccc3c2C(c2ccccc2C)NC3=O)n1` (centres unmarked) [Compound I-14] yielded an IC50 of 10 to 100 µM.

Take `O=C1NC(c2cccc(F)c2F)c2c(NC(=O)c3csc4ccccc34)ccnc21` (centres unmarked) [Compound I-15, N-(5-(2,3-Difluorophenyl)-7-oxo-6,7-dihydro-5H-pyrrolo[3,4-b]pyridin-4-yl)benzo[b]thiophene-3-carboxamide]: the 50% inhibitory concentration (IC50) was 0.1 to 0.5 µM.

Molecule `Cc1ccccc1C1NC(=O)c2cccc(NC(=O)C(F)(F)F)c21` (centres unmarked) [Compound I-16] displayed an IC50 of 10 to 100 µM.

In turn, `Cc1ccccc1C1NC(=O)c2cccc(NC(=O)c3nn(C)c4ccccc34)c21` (centres unmarked) [Compound I-17] gave an IC50 of 10 to 100 µM.

For the molecule `COc1ccccc1C1NC(=O)c2cccc(NC(=O)c3csc4ccccc34)c21` (centres unmarked) [Compound I-18], the IC50 fell in the range of 1 to 10 µM.

`Cc1ccccc1C1NC(=O)c2cccc(NC(=O)c3coc4cc(F)ccc34)c21` (centres unmarked) [Compound I-20] showed an IC50 of 0.5 to 1 µM.

In the case of `Cc1ccccc1C1NC(=O)c2cccc(NC(=O)c3noc4ccc(F)cc34)c21` (centres unmarked) [Compound I-21], the IC50 fell in the range of 1 to 10 µM.

In the case of `O=C1N[C@H](c2cccc(F)c2F)c2c(NC(=O)c3csc4ccccc34)ccnc21` [Compound I-23], the IC50 is 1 to 10 µM.

`Cc1ccccc1C1NC(=O)c2cccc(NC(=O)c3n[nH]c4ccccc34)c21` (centres unmarked) [Compound I-24] came in with an IC50 of 10 to 100 µM.

For `Cc1ccccc1C1NC(=O)c2cccc(Nc3cc4ccccc4nn3)c21` (centres unmarked) [Compound I-27], the IC50 lay within 10 to 100 µM.

With `Cc1ccccc1C1NC(=O)c2cccc(Nc3nc(C)c4ccccc4n3)c21` (centres unmarked) [Compound I-28], the IC50 fell in the range of 10 to 100 µM.

For `Cc1ccccc1C1NC(=O)c2cccc(NC(=O)c3cc(=O)[nH]c4ccccc34)c21` (centres unmarked) [Compound I-30], the half-maximal inhibitory concentration (IC50) fell in the range of 10 to 100 µM.

The molecule `O=C1NC(O)(c2cccc(F)c2F)c2c(NC(=O)c3csc4ccccc34)ccnc21` (centres unmarked) [Compound I-31] registered an IC50 of 10 to 100 µM.

Take `O=C1N[C@@H](c2ccccc2Cl)c2c(NC(=O)c3csc4ccccc34)ccnc21` [Compound I-32]: the IC50 is 1 to 10 µM.

`Cc1ccccc1C1NC(=O)c2cccc(NC(=O)c3csc4c(F)cccc34)c21` (centres unmarked) [Compound I-36] registered an IC50 of 0.1 to 0.5 µM.

On to `Cc1ccccc1[C@@H]1NC(=O)c2cccc(NC(=O)c3csc4c(F)cccc34)c21` [Compound I-37], for which the IC50 is 10 to 100 µM.

In turn, `Cc1ccccc1C1NC(=O)c2cccc(NC(=O)c3noc4ccccc34)c21` (centres unmarked) [Compound I-41] yielded a concentration for half-maximal inhibition (IC50) of 10 to 100 µM.

Molecule `COc1ccc2scc(C(=O)Nc3cccc4c3C(c3ccccc3C)NC4=O)c2c1` (centres unmarked) [Compound I-42] had an IC50 of 1 to 10 µM.

Consider `Cc1ccccc1C1NC(=O)c2cccc(NC(=O)N3CC(=O)Nc4ccccc43)c21` (centres unmarked) [Compound I-44], for which the IC50 was 10 to 100 µM.

The molecule `Cc1ccccc1C1NC(=O)c2cccc(NC(=O)c3cnc4ccc(Cl)cn34)c21` (centres unmarked) [Compound I-47] registered an IC50 of 10 to 100 µM.

Molecule `Cc1ccccc1C1NC(=O)c2cccc(NC(=O)c3cnn4ccc(Cl)cc34)c21` (centres unmarked) [Compound I-48] returned an IC50 of 1 to 10 µM.

For `Cc1cccnc1C1NC(=O)c2cccc(NC(=O)c3csc4ccccc34)c21` (centres unmarked) [Compound I-49], the IC50 was 1 to 10 µM.

Molecule `Cc1ccccc1C1NC(=O)c2cccc(NC(=O)N3CCCc4ccccc43)c21` (centres unmarked) [Compound I-55] gave an IC50 of 1 to 10 µM.

The molecule `Cc1ccccc1C1NC(=O)c2cc(NS(C)(=O)=O)cc(NC(=O)c3cc(F)cc(C(F)(F)F)c3)c21` (centres unmarked) [Compound I-56] displayed an IC50 of 0.1 to 0.5 µM.

As to `O=C1NC(c2ncccc2Cl)c2c(NC(=O)c3csc4ccccc34)cccc21` (centres unmarked) [Compound I-57], the IC50 was 1 to 10 µM.

With `Cc1ccccc1C1NC(=O)c2cccc(NC(=O)c3coc4c(F)cc(F)cc34)c21` (centres unmarked) [Compound I-58], the IC50 lay in the range of 0.1 to 0.5 µM.

Molecule `Cc1ccccc1C1NC(=O)c2cccc(NC(=O)c3cc(F)cc(OC(F)F)c3)c21` (centres unmarked) [Compound I-59] came in with an IC50 of 1 to 10 µM.

In turn, `Cc1ccccc1C1NC(=O)c2cccc(NC(=O)c3ccn4ccccc34)c21` (centres unmarked) [Compound I-61] had an IC50 of 0.1 to 0.5 µM.
